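The compound was tested at five concentrations on cells cultured in 96-well plates, with a 48-hour exposure period. The concentration for 50% growth inhibition is given as GI50.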 Activity calls are given as the source filed them. Rule as the data show it: active = GI50 up to about 1.1 µM and inactive = higher.
Columns and labels:
Experiment in all cases: NCI-60 cell line screen, 48 h
[1] = tested on: LOX IMVI
[2] = tested on: NCI-H460
[3] = tested on: Malme-3M
[4] = tested on: RXF 631
[5] = tested on: EKVX
[6] = tested on: SNB-19
[7] = tested on: SF-539
[8] = tested on: DLD-1
[9] = tested on: A549
[10] = tested on: K562
[11] = tested on: SNB-75
[12] = tested on: NCI-H226
[13] = tested on: SF-268
[14] = tested on: SW-620
[15] = tested on: HCC 2998
[16] = tested on: UO-31
[17] = tested on: HL-60
[18] = tested on: HT-29
[19] = tested on: UACC-257
[20] = tested on: 786-0
[21] = tested on: HCT-15
[22] = tested on: SNB-78
[23] = tested on: OVCAR-3
[24] = tested on: LXFL 529
[25] = tested on: KM12
[26] = tested on: RXF 393
[27] = tested on: MOLT-4
[28] = tested on: DMS-273
[29] = tested on: CAKI-1
[30] = tested on: XF498
[31] = tested on: DMS-114
[32] = tested on: U-251
[33] = tested on: CCRF-CEM
[34] = tested on: IGROV-1
[35] = tested on: M19-MEL
[36] = tested on: HOP-92
[37] = tested on: SN12C
[38] = tested on: UACC-62
[39] = tested on: OVCAR-8
[40] = tested on: SF-295
[41] = tested on: ACHN
[42] = tested on: TK-10
[43] = tested on: SK-OV-3
[44] = tested on: OVCAR-5
[45] = tested on: M14
[46] = tested on: COLO 205
[47] = tested on: HOP-62
[48] = tested on: NCI-H522
[49] = tested on: RPMI-8226
[50] = tested on: SK-MEL-2
[51] = tested on: OVCAR-4
[52] = tested on: SK-MEL-5
[53] = tested on: SK-MEL-28

COC(=O)C(=Cc1cc(OC)ccc1OC)C(=O)OC
GI50 [1]: 18.2 µM (inactive) | GI50 [2]: 30.8 µM (inactive) | GI50 [3]: 26.9 µM (inactive) | GI50 [4]: 32 µM (inactive) | GI50 [5]: 33.7 µM (inactive) | GI50 [6]: 44 µM (inactive) | GI50 [7]: 24.7 µM (inactive) | GI50 [8]: 29 µM (inactive) | GI50 [9]: 31 µM (inactive) | GI50 [10]: 18 µM (inactive) | GI50 [11]: 19.9 µM (inactive) | GI50 [12]: 53.6 µM (inactive) | GI50 [13]: 34.2 µM (inactive) | GI50 [14]: 23.7 µM (inactive) | GI50 [15]: 19.1 µM (inactive) | GI50 [16]: 23 µM (inactive) | GI50 [17]: 21.8 µM (inactive) | GI50 [18]: 21.8 µM (inactive) | GI50 [19]: 14.1 µM (inactive) | GI50 [20]: 23.4 µM (inactive) | GI50 [21]: 25.2 µM | GI50 [22]: 34.1 µM (inactive) | GI50 [23]: 21.2 µM (inactive) | GI50 [24]: 16.6 µM (inactive) | GI50 [25]: 20.6 µM (inactive) | GI50 [26]: 16 µM (inactive) | GI50 [27]: 27.4 µM (inactive) | GI50 [28]: 32.3 µM (inactive) | GI50 [29]: 18.9 µM (inactive) | GI50 [30]: 25.5 µM (inactive) | GI50 [31]: 20.8 µM (inactive) | GI50 [32]: 19.8 µM (inactive) | GI50 [33]: 20 µM (inactive) | GI50 [34]: 25.5 µM (inactive) | GI50 [35]: 22 µM (inactive) | GI50 [36]: 19.2 µM (inactive) | GI50 [37]: 24.9 µM (inactive) | GI50 [38]: 20.9 µM (inactive) | GI50 [39]: 30 µM (inactive) | GI50 [40]: 28.2 µM (inactive) | GI50 [41]: 17.3 µM (inactive) | GI50 [42]: 36.3 µM (inactive) | GI50 [43]: 31.5 µM (inactive) | GI50 [44]: 28.2 µM (inactive) | GI50 [45]: 15.3 µM (inactive) | GI50 [46]: 18.2 µM (inactive) | GI50 [47]: 27.5 µM (inactive) | GI50 [48]: 15.1 µM (inactive) | GI50 [49]: 25.9 µM (inactive) | GI50 [50]: 22.1 µM (inactive) | GI50 [51]: 20.3 µM (inactive) | GI50 [52]: 19.1 µM (inactive) | GI50 [53]: 23.6 µM (inactive)

From ChEMBL document CHEMBL1201862, “PubChem BioAssay data set” (2004)
